# Reference: patent publication US4281009A, “Hydantoin derivatives” (Nippon Zoki Pharmaceutical Co., Ltd., priority 1978, dated 1981)
# Legend:
# [1] = tested on: isolated duodenum; assay: Recovery of acetylcholine sensitivity of isolated duodenum of SART stress mice (Magnus method); format: in vivo, mice (dd-strain male); conditions: 6th day, Ach 10^-7 g/ml, Average ± S.E.
# From the text: (§1) SART stress animals used in the tests described below were raised according to a method of Kita, et al. [Folia Pharmacol. Japan.: 71, 195-210 (1975)].
# 3. Effect of recovering acetylcholine (Ach) sensitivity of isolated intestinal tract:
# Groups each comprising at least 10 dd-strain male mice were used. The compounds of the present invention or other comparative drugs were given intraperitoneally once a day during the stress-causing operation. On the 6th day, Ach (10^-7 g/ml.) sensitivity of isolated duodenum was examined using the Magnus method.
# [2] = Acute toxicity test (LD50, Litchfield-Wilcoxon), mice; conditions: mouse, in vivo, ip, intraperitoneal
# Method: (§2) Toxicity tests were carried out by intraperitoneal administration of the compound of the present invention to groups each comprising 10 ICR-strain mice and SD-strain rats. LD50 was calculated by the Litchfield-Wilcoxon method based on the number of death 72 hours after the administration.
# [3] = Acute toxicity test (LD50, Litchfield-Wilcoxon), rats; conditions: rat, in vivo, ip, intraperitoneal
# Method: as §2
# [4] = tested on: SART stress mice; assay: Inhibitory effects on increase of heart rate and elongation of QRS-time in SART stress mice; format: in vivo, mice (dd-strain male); conditions: 9th day, Average ± S.D.
# Method: as §1
# 2. Inhibitory effects on increase of heart rate and elongation of QRS-time in stress animals:
# Groups of mice each comprising 11 or 12 dd-strain male mice were divided into three groups in the same manner as above and heart rate and QRS-time were determined on the 9th day after initiation of the tests.
# [5] = tested on: normal mice and SART stress mice; assay: Analgesic effect, tail pressure method (Randall-Selitto's device); format: in vivo, mice (ddY-strain male); conditions: 60 minutes; for change in vivo at 100 mg/kg: Mus musculus, ip, 1 h, intraperitoneal 100 mg/kg; for Analgesic effect: intraperitoneal 50 mg/kg
# Method: 5.1 Tail pressure method:
# Randall-Selitto's device for determining analgesic effect by pressure stimulation was used. […]. The compounds of the present invention or other comparative drugs were given thereto and analgesic effect was determined. The effect was judged by measuring pressure applied 60 minutes after the intraperitoneal administration of the compounds of the present invention. The pressure thus measured was divided by a pressure before the administration. The value thus obtained was compared with that of a control group (to which 10 ml./Kg of 0.5% sodium salt of carboxymethylcellulose or 0.5% Tween 80 was given). When the compounds of the present invention were given perorally and other comparative drugs were given, an average of the pressure at 30, 60, 90 and 120 minutes after the administration was employed for evaluating the effect.
# [6] = tested on: normal mice and SART stress mice; assay: Analgesic effect, acetic acid writhing method; format: in vivo; conditions: Mus musculus, sc, 100 mg/Kg subcutaneously
# Method: 5.2. Acetic acid writhing method: 0.1 ml./10 g of isotonic sodium chloride solution containing 0.7% acetic acid was given intraperitoneally to groups of mice each comprising 5 normal mice and 5 SART stress mice to which SART stress had been applied for 8 days. Writhing syndromes number appeared for 15 minutes after the administration was measured. The effect was evaluated by giving 100 mg/Kg of the compounds of the present invention or DPH subcutaneously and comparing the writhing syndromes number of the mice with that of control mice.
# [7] = tested on: normal mice and SART stress mice; assay: Analgesic effect, D'Amour-Smith method; format: in vivo, mice (ddY-strain male); conditions: Mus musculus, ip, intraperitoneal 100 mg/kg
# Method: 5.3. D'Amour-Smith method:
# Groups each comprising 10 ddY-strain male normal mice and SART stress mice to which SART stress had been applied for 4 days were used. The root of the tail of the mouse to which black ink was applied was irradiated with infrared rays for up to 15 seconds. Time required till escape response was observed was measured. The effect was shown by the ratio of the mice in which an average value of the response time at 30, 60, 90 and 120 minutes after the administration of the compounds of the present invention or other comparative drugs was prolonged to at least 2 times as long as the time before the administration.
# [8] = tested on: normal rats and SART stress rats; assay: Analgesic effect, pain induced by Bradykinin; format: in vivo, rats (SD-strain male); conditions: intraperitoneal 100 mg/kg
# Method: 5.4 Method of measuring a pain induced by Bradykinin:
# Groups each comprising 4-8 SD-strain male normal rats and SART stress rats to which SART stress had been applied for 4 days were used. The tests were carried out according to the method of Deffenu et al. [Deffenu, G., Pegrassi, L., & Fumachi. B.; J. Pharm. Pharmacol.; 18, 135 (1966)] and Blane method [Blane, G. F.; J. Pharm. Pharmacol.; 19, 367 (1967)]. The effect judged was shown by ratio of the rats in which the effect was recognized according to the method of Abe, et al. [Abe, Kaneko & Takagi; Folia Pharmacol. Japon.; 67, 9-14 (1971)].
# [9] = tested on: ddY-strain male mice; assay: Effect of prolongation of sleeping time (hexobarbital); format: in vivo; conditions: for change in vivo at 100 mg/kg / change in vivo at 300 mg/kg: Mus musculus, ip; for change in vivo at 100 mg/kg: 100 mg/kg intraperitoneal; for change in vivo at 300 mg/kg: 300 mg/kg intraperitoneal
# Method: 7. Effect of prolongation of sleeping time:
# Groups of mice each comprising 10 ddY-strain male mice were used. Sodium salt of hexobarbital was given intraperitoneally. Thereafter, the period of time in which righting reflex disappeared was measured. The effect was evaluated on the basis of prolongation of time of disappearance of righting reflex by the intraperitoneal administration of the compounds of the present invention as compared with control mice.
# [10] = tested on: dd-strain male mice; assay: Inhibitory effect on Tremorine-induced tremor; format: in vivo; conditions: 100 mg/kg intraperitoneal; tremorine 10 mg/Kg
# Method: 9. Inhibitory effect on Tremorine-induced tremor:
# Groups of mice each comprising 10-40 dd-strain male mice were used. Effect of the compounds of the present invention on tremor caused by tremorine was examined. The compounds of the present invention or DPH was given intraperitoneally. 45 minutes thereafter, 10 mg/Kg of tremorine was given intraperitoneally for inducing the tremor.
# [11] = tested on: spontaneously hypertensive rats (SHR); assay: Antihypertensive effect in spontaneously hypertensive rats; format: in vivo; conditions: 60 minutes
# Method: 8. Antihypertensive effect: Groups of rats each comprising 6-9 spontaneously hypertensive rats (SHR) were used. The compounds of the present invention or DPH was given intraperitoneally. The rate of antihypertension 60 minutes after the administration was determined.
# [12] = tested on: dd-strain male mice; assay: Antiulcerogenic effect on Takagi's restraint-plus-water-immersing ulcer; format: in vivo; conditions: Mus musculus, ip; 150 mg/kg intraperitoneal
# Method: 6.1 Antiulcerogenic effect on Takagi's restraint-plus-water-immersing ulcer: Groups each comprising 8-26 dd-strain male mice were used. The tests were carried out according to a method of Takagi, et al. [Chem. Pharm. Bull.; 12, 465 (1964)]. Sum of length of diseased parts in the glandular stomach was measured and it was compared with that of control group. The compounds of the present invention or DPH was given intraperitoneally immediately before the restraint and immersion in water.
# [13] = tested on: Wistar-strain male rats; assay: Antiulcerogenic effect on Shay's ulcer (operative ulcer); format: in vivo; conditions: 150 mg/kg intraperitoneal, 10 times
# Method: 6.2. Antiulcerogenic effect on Shay's ulcer (operative ulcer):
# Tests were carried out by using groups of rats each comprising 5-10 Wistar-strain male rats according to Shay method [Shay Harry; Gastroenterology,; 5, 43 (1945)]. Ulcers in the anterior stomach were classified on the following basis:
# 2. 1-5 small ulcers (diameter of less than 3 mm)
# 3. 6 or more small ulcers or one big ulcer (diameter of more than 3 mm)
# 4. two or more big ulcers
SMILES,Ach-induced contraction of the isolated deodedum ([1]; 5 mg/kg/day intraperitoneal) [%],LD50 at 72 h ([2]; female) [mg/kg],LD50 at 72 h ([2]; male) [mg/kg],LD50 at 72 h ([3]; female) [mg/kg],LD50 at 72 h ([3]; male) [mg/kg],change in vivo at 100 mg/kg ([5]; SART stress mice) [%],change in vivo at 100 mg/kg ([5]; normal mice) [%],responders at 100 mg/kg ([7]; SART stress mice) [%],responders at 100 mg/kg ([7]; normal mice) [%],change in vivo at 100 mg/kg [9] [%],change in vivo at 300 mg/kg [9] [%],further results
CN1C(=O)CN=C(c2ccccc2)c2cc(Cl)ccc21 [Diazepam],25 ± 6,–,–,–,–,–,–,–,–,–,–,–
"O=C1NC(=O)C(c2ccccc2)(c2ccc(O)cc2)N1 (stereo not drawn) [Compound 7, 5-(4-Hydroxyphenyl)-5-phenylhydantoin]",–,> 5000,> 5000,> 5000,> 5000,106,38.1,50,40,112,–,Heart rate ([4]; 50 mg/kg/day): 690 ± 56 min⁻¹; QRS-time ([4]; 50 mg/kg/day): 12.6 ± 1.5 1/1000 sec; Analgesic effect ([5]; SART stress mice): 76.5%; Analgesic effect ([5]; normal mice): 31.5%; inhibition in vivo at 100 mg/kg ([6]; SART stress mice): 31.3%; inhibition in vivo at 100 mg/kg ([6]; normal mice): 3.8%; Analgesic effect ([8]; SART stress rats): 66.7%; Analgesic effect ([8]; normal rats): 50%; Effect of prolongation of sleeping time ([9]; 20 mg/kg intraperitoneal): 48.0%; Effect of prolongation of sleeping time ([9]; 50 mg/kg intraperitoneal): 101.7%; Inhibitory effect on Tremorine-induced tremor [10]: 35%
NC(=O)C1(N2CCCCC2)CCN(CCCN2c3ccccc3CCc3ccccc32)CC1 [Carpipramine],52 ± 6,–,–,–,–,–,–,–,–,–,–,Ach-induced contraction of the isolated deodedum ([1]; 10 mg/kg/day intraperitoneal): 110 ± 26%
CCCC(C)(COC(N)=O)COC(N)=O [Meprobamate],31 ± 2,–,–,–,–,–,–,–,–,–,–,–
COC(=O)[C@H]1[C@H]2C[C@@H]3c4[nH]c5cc(OC)ccc5c4CCN3C[C@H]2C[C@@H](OC(=O)c2cc(OC)c(OC)c(OC)c2)[C@@H]1OC [Reserpine],–,–,–,–,–,–,–,–,–,–,–,Ach-induced contraction of the isolated deodedum ([1]; 0.1 mg/kg/day intraperitoneal): 75 ± 10%; Ach-induced contraction of the isolated deodedum ([1]; 0.5 mg/kg/day intraperitoneal): 104 ± 15%
CN(C)CCCN1c2ccccc2Sc2ccc(Cl)cc21 [Chlorpromazine],–,–,–,–,–,–,–,–,–,–,–,Ach-induced contraction of the isolated deodedum ([1]; 0.1 mg/kg/day intraperitoneal): 45 ± 12%; Ach-induced contraction of the isolated deodedum ([1]; 0.5 mg/kg/day intraperitoneal): 81 ± 17%
CN(C)CCCN1c2ccccc2CCc2ccccc21 [Imipramine],44 ± 15,–,–,–,–,–,–,–,–,–,–,Ach-induced contraction of the isolated deodedum ([1]; 10 mg/kg/day intraperitoneal): 100 ± 4%
CN(C)CCOC(c1ccccc1)c1ccccc1 [Diphenhydramine],–,–,–,–,–,–,–,–,–,–,–,Ach-induced contraction of the isolated deodedum ([1]; 10 mg/kg/day intraperitoneal): 25 ± 5%
"COc1ccc(C2(c3ccc(OC)c(C)c3)NC(=O)NC2=O)cc1 (stereo not drawn) [Compound 3, 5-(4-methoxy-3-methylphenyl)-5-(4-methoxyphenyl)hydantoin]",–,> 5000,> 5000,> 5000,> 5000,91,47.4,40,30,76.6,93.9,Heart rate ([4]; 100 mg/kg/day): 710 ± 83 min⁻¹; QRS-time ([4]; 100 mg/kg/day): 13.1 ± 1.7 1/1000 sec; Analgesic effect ([5]; SART stress mice): 60.3%; Analgesic effect ([5]; normal mice): 44.3%; inhibition in vivo at 100 mg/kg ([6]; SART stress mice): 22%; inhibition in vivo at 100 mg/kg ([6]; normal mice): 2%
"Cc1cc(C2(c3ccc(O)cc3)NC(=O)NC2=O)ccc1O (stereo not drawn) [Compound 30, 5-(4-Hydroxy-3-methylphenyl)-5-(4-hydroxyphenyl)hydantoin]",–,> 5000,> 5000,> 5000,> 5000,97.5,59.8,30,20,26.6,97.4,Heart rate ([4]; 100 mg/kg/day): 731 ± 71 min⁻¹; QRS-time ([4]; 100 mg/kg/day): 13.4 ± 1.1 1/1000 sec; Analgesic effect ([5]; SART stress mice): 43.6%; Analgesic effect ([5]; normal mice): 12.4%; inhibition in vivo at 100 mg/kg ([6]; SART stress mice): 25.2%; inhibition in vivo at 100 mg/kg ([6]; normal mice): 3.9%; Rate of antihypertension ([11]; 150 mg/Kg intraperitoneal): 10.9%; Rate of antihypertension ([11]; 300 mg/Kg intraperitoneal): 28.6%
"O=C1NC(=O)C(c2ccc(O)cc2)(c2ccc(O)c(Cl)c2)N1 (stereo not drawn) [Compound 33, 5-(3-Chloro-4-hydroxyphenyl)-5-(4-hydroxyphenyl)hydantoin]",–,> 5000,> 5000,> 5000,> 5000,69.8,29.5,30,20,24.2,32.9,inhibition in vivo at 150 mg/kg [12]: 29.8%; Antiulcerogenic effect on Shay's ulcer (operative ulcer) [13]: 54.2%; Inhibitory effect on Tremorine-induced tremor [10]: 29%
"O=C1NC(=O)C(c2ccccc2)(c2ccc(F)cc2)N1 (stereo not drawn) [Compound 5, 5-(4-Fluorophenyl)-5-phenylhydantoin]",–,810,840,1100,1180,95,19.8,40,10,31,38.1,inhibition in vivo at 150 mg/kg [12]: 22.8%; Antiulcerogenic effect on Shay's ulcer (operative ulcer) [13]: 20.7%
